Where two headings read alike, the source gives them in different places.
Assay: Pharmacokinetics (plasma and urine) of ascending multiple oral doses in healthy volunteers
Format: in vivo, human
Settings: for Intra-subject CV % of AUC(0-τ) / Intra-subject CV % of Cmax: ANOVA, data from Days 10 and 14; for Vd/F: read-out: Vz/F; for half-life: read-out: t1/2 (converted); for Cmax / concentration at 24 h / Tmax: healthy subjects (N = 8); for Cmax: read-out: Cmax; for concentration at 24 h: read-out: Ctrough; for Tmax: median, read-out: tmax
From the text: Subjects: Forty healthy male and female subjects between the ages of 20 and 50 were enrolled in the study. All subjects were in good health as determined by a medical history, physical examination, 12-lead ECG, serum biochemistry, hematology, urinalysis and virology. Subjects were not permitted to take any prescribed medication within 30 days or non-prescribed medication within 7 days of the first dose administration.
Study Design: This study was a randomized, double-blind, placebo-controlled, ascending-dose trial to evaluate the safety, tolerability and pharmacokinetics (PK) of multiple oral doses of Compound I. Subjects were enrolled into 1 of the 4 cohorts, 10 subjects per cohort (active:placebo=8:2). Subjects received a multiple oral dose of 25, 50, 100, or 200 mg unformulated Compound I in a capsule, or matching placebo, once daily (QD) for 14 days.
Assessments: Safety and tolerability were assessed by adverse event (AE) monitoring, clinical laboratory testing, vital sign measurement, 12-lead ECG measurement, concomitant medication assessment, and physical examination. Blood and urine samples were collected to assess the PK profile of Compound I and the S-cis isomer of Compound I. Blood samples (˜5 mL) for plasma PK analysis were collected in K2-EDTA vacutainer tubes to yield approximately 2 mL of plasma at each of the following time points: (i) Day 1: before dosing, and 0.25, 0.5, 1, 1.5, 2, 2.5, 3, 4, 6, 8, 10, 12, 16, and 24 hours after dosing; (ii) Day 3 to Day 9: before dosing; (iii) Day 10: before dosing, and 0.25, 0.5, 1, 1.5, 2, 2.5, 3, 4, 6, 8, 10, 12, and 16 hours after dosing; (iv) Day 11 to Day 13: before dosing; (v) Day 14: before dosing, and 0.25, 0.5, 1, 1.5, 2, 2.5, 3, 4, 6, 8, 10, 12, 16, 24, 48, 72, 96, 120, 144, and 168 hours after dosing. Urine samples for the PK analysis were collected as a single block at: (i) Day 1: before dosing (spot collection), 0 to 8, 8 to 16, and 16 to 24 hours after dosing; and (ii) Day 14: 0 to 8, 8 to 16, and 16 to 24 hours after dosing. Both plasma and urine concentrations of Compound I and its S-cis isomer were measured using validated liquid chromatography-tandem mass spectrometry (LC/MS/MS).
Data Analysis: Safety data were summarized using descriptive statistics by treatment. PK parameters for Compound I and its S-cis isomer were calculated using non-compartmental analysis using WinNonlin (Version 5.0.1 or greater; Pharsight Corporation, Mountain View, Calif.). Dose proportionality and dose independence were evaluated by visual inspection. Intra-subject variability was assessed using an ANOVA model using data from Days 10 and 14.

[1] = 25 mg QD, Day 1, urine (n = 8), geometric mean
[2] = 25 mg QD, Day 14, plasma (N = 8), geometric mean
[3] = 25 mg QD, Day 14, urine (n = 8), geometric mean
[4] = 50 mg QD, Day 1, urine (n = 8), geometric mean
[5] = 50 mg QD, Day 14, plasma (N = 8), geometric mean
[6] = 50 mg QD, Day 14, urine (n = 8), geometric mean
[7] = 100 mg QD, Day 1, urine (n = 8), geometric mean
[8] = 100 mg QD, Day 14, plasma (N = 8), geometric mean
[9] = 100 mg QD, Day 14, urine (n = 8), geometric mean
[10] = 200 mg QD, Day 1, urine (n = 8), geometric mean
[11] = 200 mg QD, Day 14, plasma (N = 8), geometric mean
[12] = 200 mg QD, Day 14, urine (n = 8), geometric mean
[13] = both sexes, human, oral, 25 mg QD, Day 14, plasma (N = 8), geometric mean
[14] = both sexes, human, oral, 50 mg QD, Day 14, plasma (N = 8), geometric mean
[15] = both sexes, human, oral, 100 mg QD, Day 14, plasma (N = 8), geometric mean
[16] = both sexes, human, oral, 200 mg QD, Day 14, plasma (N = 8), geometric mean
[17] = both sexes, human, plasma, oral, 25 mg, 25 mg QD, Day 1, plasma, geometric mean
[18] = both sexes, human, plasma, oral, 25 mg, 25 mg QD, Day 14, plasma, geometric mean

O[C@H]1CC[C@H](Nc2ncc3nc(Nc4c(F)cc(F)cc4F)n([C@H]4CCOC4)c3n2)CC1 [Compound I, 4-((9-((3S)-tetrahydro-3-furanyl)-8-((2,4,6-trifluorophenyl)amino)-9H-purin-2-yl)amino)-trans-cyclohexanol]
Ae (amount of drug excreted in urine) [1]: 1.3 mg | fe (percentage of dose excreted in urine) [1]: 5.2% | CL/F [2]: 95 mL/min | RA (ratio of accumulation) [2]: 1.9 | Ae (amount of drug excreted in urine) [3]: 3.5 mg | fe (percentage of dose excreted in urine) [3]: 14.0% | Intra-subject CV % of AUC(0-τ) (25 mg QD): 7.0% | Intra-subject CV % of Cmax (25 mg QD): 10.2% | Ae (amount of drug excreted in urine) [4]: 3.0 mg | fe (percentage of dose excreted in urine) [4]: 5.9% | CL/F [5]: 85 mL/min | RA (ratio of accumulation) [5]: 2.2 | Ae (amount of drug excreted in urine) [6]: 6.9 mg | fe (percentage of dose excreted in urine) [6]: 13.9% | Intra-subject CV % of AUC(0-τ) (50 mg QD): 8.4% | Intra-subject CV % of Cmax (50 mg QD): 5.7% | Ae (amount of drug excreted in urine) [7]: 5.3 mg | fe (percentage of dose excreted in urine) [7]: 5.3% | CL/F [8]: 130 mL/min | RA (ratio of accumulation) [8]: 1.8 | Ae (amount of drug excreted in urine) [9]: 11.9 mg | fe (percentage of dose excreted in urine) [9]: 11.9% | Intra-subject CV % of AUC(0-τ) (100 mg QD): 15.7% | Intra-subject CV % of Cmax (100 mg QD): 23.7% | Ae (amount of drug excreted in urine) [10]: 5.0 mg | fe (percentage of dose excreted in urine) [10]: 2.5% | CL/F [11]: 146 mL/min | RA (ratio of accumulation) [11]: 1.5 | Ae (amount of drug excreted in urine) [12]: 11.7 mg | fe (percentage of dose excreted in urine) [12]: 5.8% | Intra-subject CV % of AUC(0-τ) (200 mg QD): 14.0% | Intra-subject CV % of Cmax (200 mg QD): 18.3% | accumulation at steady state (Day 10 and Day 14, QD dosing): approximately 2 fold | intra-subject variability of AUCss,(0-τ) (Days 10 and 14): less than 20% | steady state reached (trough plasma concentrations) (QD dosing): 6 days | Vd/F [13]: 256 L | half-life [13]: 31 h | Vd/F [14]: 193 L | half-life [14]: 26 h | Vd/F [15]: 338 L | half-life [15]: 30 h | Vd/F [16]: 328 L | half-life [16]: 26 h | AUC(0-inf) (both sexes, human, plasma, oral, 25 mg, 25 mg QD, Day 1, plasma (N = 8), geometric mean): 4260 ng·h/mL | Cmax [17]: 212 ng/mL | concentration at 24 h [17]: 55 ng/mL | Tmax (both sexes, human, plasma, oral, 25 mg, 25 mg QD, Day 1, plasma): 2.3 h | AUC (both sexes, human, plasma, oral, 25 mg, 25 mg QD, Day 1, plasma, τ = 24 hours (N = 8), geometric mean, read-out: AUC(0-τ)): 2270 ng·h/mL | AUC(0-inf) (both sexes, human, plasma, oral, 25 mg, 25 mg QD, Day 14, plasma (N = 8), geometric mean): 10200 ng·h/mL | Cmax [18]: 328 ng/mL | concentration at 24 h [18]: 130 ng/mL | Tmax (both sexes, human, plasma, oral, 25 mg, 25 mg QD, Day 14, plasma): 2 h
